Oligonucleotides are written 5' to 3', each unit as a sugar letter and its base; * is a phosphorothioate linkage, no mark a phosphodiester; rarer units and linkages stand in square brackets, end groups in braces. Plain capitals give the bases only. Oligonucleotides are given in HELM: sugar(base)linkage, 5' to 3'; d 2'-deoxyribose, r ribose, m 2'-O-methylribose, p phosphate. ss, as = sense and antisense strand; d = 2'-deoxy (DNA); r = 2'-OH (RNA)
Target: UBE2D3
Experiment: reporter assay of Huesken 2005
Details: siRNA
Further: test concentration or dose not given here.

Compared with “RNA1{r(U)p.r(U)p.r(U)p.r(C)p.r(A)p.r(U)p.r(U)p.r(G)p.r(G)p.r(C)p.r(A)p.r(A)p.r(G)p.r(C)p.r(C)p.r(A)p.r(C)p.r(A)p.r(A)p.d(T)p.d(T)}|RNA2{r(U)p.r(U)p.r(G)p.r(U)p.r(G)p.r(G)p.r(C)p.r(U)p.r(U)p.r(G)p.r(C)p.r(C)p.r(A)p.r(A)p.r(U)p.r(G)p.r(A)p.r(A)p.r(A)p.d(C)p.d(A)}$$$RNA1{StrandType:ss}|RNA2{StrandType:as}$”, “RNA1{r(U)p.r(U)p.r(U)p.r(C)p.r(U)p.r(A)p.r(A)p.r(A)p.r(G)p.r(U)p.r(U)p.r(C)p.r(U)p.r(U)p.r(U)p.r(U)p.r(A)p.r(U)p.r(C)p.d(T)p.d(T)}|RNA2{r(G)p.r(A)p.r(U)p.r(A)p.r(A)p.r(A)p.r(A)p.r(G)p.r(A)p.r(A)p.r(C)p.r(U)p.r(U)p.r(U)p.r(A)p.r(G)p.r(A)p.r(A)p.r(A)p.d(T)p.d(T)}$$$RNA1{StrandType:ss}|RNA2{StrandType:as}$” is lower in normalised inhibition (eCFP-eYFP dual reporter): 85.3% for the first, 30.6% for the second.

Target: UBE2T
Experiment: reporter assay of Huesken 2005
Details: siRNA

First: sense rArArCrCrCrArArCrCrCrUrGrArUrGrArCrCrCdTdT / antisense rGrGrGrUrCrArUrCrArGrGrGrUrUrGrGrGrUrUdCdT
Second: sense rArArGrArGrArUrGrCrUrUrGrArUrArArUrCrUdTdT / antisense rArGrArUrUrArUrCrArArGrCrArUrCrUrCrUrUdCdC
The normalised inhibition (eCFP-eYFP dual reporter) of the first is lower: 52.7% for the first, 99.4% for the second.

Compared with “sense rArArGrGrArUrUrUrGrUrCrUrGrGrArUrGrUrUdTdT / antisense rArArCrArUrCrCrArGrArCrArArArUrCrCrUrUdCdC”, “sense rArArGrGrUrGrCrUrUrGrGrArGrArCrCrArUrCdTdT / antisense rGrArUrGrGrUrCrUrCrCrArArGrCrArCrCrUrUdTdT” is lower in normalised inhibition (eCFP-eYFP dual reporter): 79.9% for the first, 60.5% for the second.

Going from “sense rArArGrUrUrArUrCrArUrUrCrCrUrGrArGrArGdTdT / antisense rCrUrCrUrCrArGrGrArArUrGrArUrArArCrUrUdCdT” to “sense rArArUrGrCrCrArGrArCrArGrUrGrGrArCrArGdTdT / antisense rCrUrGrUrCrCrArCrUrGrUrCrUrGrGrCrArUrUdCdT”, the normalised inhibition (eCFP-eYFP dual reporter) falls from 79.4% to 77.5%.

Compared with “sense rArCrArCrArCrCrUrUrArUrGrArGrArArArGrGdTdT / antisense rCrCrUrUrUrCrUrCrArUrArArGrGrUrGrUrGrUdTdG”, “sense rArCrArUrArUrCrCrUrCrArGrArArUrUrUrArAdTdT / antisense rUrUrArArArUrUrCrUrGrArGrGrArUrArUrGrUdCdA” is higher in normalised inhibition (eCFP-eYFP dual reporter): 74.7% for the first, 114% for the second.

Going from “sense rArCrCrCrUrGrArUrGrArCrCrCrGrCrUrCrArUdTdT / antisense rArUrGrArGrCrGrGrGrUrCrArUrCrArGrGrGrUdTdG” to “sense rArCrCrUrCrCrUrCrArGrArUrCrCrGrArUrUrUdTdT / antisense rArArArUrCrGrGrArUrCrUrGrArGrGrArGrGrUdTdC”, the normalised inhibition (eCFP-eYFP dual reporter) falls from 101% to 100%.

Compared with “sense rArGrArArUrGrCrCrArGrArCrArGrUrGrGrArCdTdT / antisense rGrUrCrCrArCrUrGrUrCrUrGrGrCrArUrUrCrUdTdG”, “sense rArGrCrUrGrCrUrCrArUrGrUrCrArGrArArCrCdTdT / antisense rGrGrUrUrCrUrGrArCrArUrGrArGrCrArGrCrUdGdA” is lower in normalised inhibition (eCFP-eYFP dual reporter): 95% for the first, 79.4% for the second.

Compared with “sense rArGrGrArArGrArGrArUrGrCrUrUrGrArUrArAdTdT / antisense rUrUrArUrCrArArGrCrArUrCrUrCrUrUrCrCrUdCdA”, “sense rArGrGrUrArCrCrCrArUrUrUrGrArArCrCrUrCdTdT / antisense rGrArGrGrUrUrCrArArArUrGrGrGrUrArCrCrUdCdT” is lower in normalised inhibition (eCFP-eYFP dual reporter): 113% for the first, 63.1% for the second.

First: sense rArGrGrUrGrCrUrUrGrGrArGrArCrCrArUrCrCdTdT / antisense rGrGrArUrGrGrUrCrUrCrCrArArGrCrArCrCrUdTdT
Second: sense rArGrUrArGrGrCrArUrArGrArArArArGrArArAdTdT / antisense rUrUrUrCrUrUrUrUrCrUrArUrGrCrCrUrArCrUdAdG
The normalised inhibition (eCFP-eYFP dual reporter) of the first is lower: 65.6% for the first, 102% for the second.

First: sense rArUrCrUrArCrCrArGrArGrGrCrUrGrGrUrGrAdTdT / antisense rUrCrArCrCrArGrCrCrUrCrUrGrGrUrArGrArUdTdA
Second: sense rArUrUrCrCrUrGrArGrArGrGrUrArCrCrCrArUdTdT / antisense rArUrGrGrGrUrArCrCrUrCrUrCrArGrGrArArUdGdA
The normalised inhibition (eCFP-eYFP dual reporter) of the first is lower: 97% for the first, 114% for the second.

Compared with “sense rArUrUrGrCrCrArCrCrArArArArGrGrUrGrCrUdTdT / antisense rArGrCrArCrCrUrUrUrUrGrGrUrGrGrCrArArUdTdT”, “sense rCrArGrArGrUrArCrArCrArArCrUrCrArArCrAdTdT / antisense rUrGrUrUrGrArGrUrUrGrUrGrUrArCrUrCrUrGdGdA” is higher in normalised inhibition (eCFP-eYFP dual reporter): 43.8% for the first, 83% for the second.

Compared with “sense rCrArGrGrCrArUrCrArCrArUrGrUrUrGrGrCrAdTdT / antisense rUrGrCrCrArArCrArUrGrUrGrArUrGrCrCrUrGdGdG”, “sense rCrArUrCrGrCrArArCrUrGrUrGrUrUrGrArCrCdTdT / antisense rGrGrUrCrArArCrArCrArGrUrUrGrCrGrArUrGdTdT” is lower in normalised inhibition (eCFP-eYFP dual reporter): 90.8% for the first, 84.8% for the second.

Compared with “sense rCrCrArArArArGrGrUrGrCrUrUrGrGrArGrArCdTdT / antisense rGrUrCrUrCrCrArArGrCrArCrCrUrUrUrUrGrGdTdG”, “sense rCrCrArArArUrGrGrArUrGrArCrCrUrGrCrGrAdTdT / antisense rUrCrGrCrArGrGrUrCrArUrCrCrArUrUrUrGrGdTdC” is higher in normalised inhibition (eCFP-eYFP dual reporter): 84.9% for the first, 95.3% for the second.

Compared with “sense rCrCrArArUrUrUrArUrCrArUrCrCrArArArCrAdTdT / antisense rUrGrUrUrUrGrGrArUrGrArUrArArArUrUrGrGdAdG”, “sense rCrCrCrUrCrArArCrArUrCrGrCrArArCrUrGrUdTdT / antisense rArCrArGrUrUrGrCrGrArUrGrUrUrGrArGrGrGdAdT” is higher in normalised inhibition (eCFP-eYFP dual reporter): 101% for the first, 106% for the second.

Going from “sense rCrCrCrUrGrArUrGrArCrCrCrGrCrUrCrArUrGdTdT / antisense rCrArUrGrArGrCrGrGrGrUrCrArUrCrArGrGrGdTdT” to “sense rCrCrUrGrArGrArGrGrUrArCrCrCrArUrUrUrGdTdT / antisense rCrArArArUrGrGrGrUrArCrCrUrCrUrCrArGrGdAdA”, the normalised inhibition (eCFP-eYFP dual reporter) falls from 91.2% to 78.5%.

Compared with “sense rCrCrUrGrArUrGrArCrCrCrGrCrUrCrArUrGrGdTdT / antisense rCrCrArUrGrArGrCrGrGrGrUrCrArUrCrArGrGdGdT”, “sense rCrCrUrGrCrGrArGrCrUrCrArArArUrArUrUrAdTdT / antisense rUrArArUrArUrUrUrGrArGrCrUrCrGrCrArGrGdTdC” is higher in normalised inhibition (eCFP-eYFP dual reporter): 83.5% for the first, 102% for the second.

Going from “sense rCrGrArGrCrUrCrArArArUrArUrUrArGrGrUrGdTdT / antisense rCrArCrCrUrArArUrArUrUrUrGrArGrCrUrCrGdCdA” to “sense rCrGrArUrUrUrCrUrCrArCrUrCrCrArArUrUrUdTdT / antisense rArArArUrUrGrGrArGrUrGrArGrArArArUrCrGdGdA”, the normalised inhibition (eCFP-eYFP dual reporter) rises from 90% to 107%.

Going from “sense rCrUrCrArArArUrUrGrCrCrArCrCrArArArArGdTdT / antisense rCrUrUrUrUrGrGrUrGrGrCrArArUrUrUrGrArGdAdA” to “sense rCrUrCrArGrArArUrUrUrArArArUrArUrArArUdTdT / antisense rArUrUrArUrArUrUrUrArArArUrUrCrUrGrArGdGdA”, the normalised inhibition (eCFP-eYFP dual reporter) rises from 68.5% to 85.9%.

Going from “sense rCrUrCrCrArArUrUrUrArUrCrArUrCrCrArArAdTdT / antisense rUrUrUrGrGrArUrGrArUrArArArUrUrGrGrArGdTdG” to “sense rCrUrGrCrUrCrArUrGrUrCrArGrArArCrCrCrAdTdT / antisense rUrGrGrGrUrUrCrUrGrArCrArUrGrArGrCrArGdCdT”, the normalised inhibition (eCFP-eYFP dual reporter) falls from 107% to 104%.

First: sense rCrUrUrArUrGrArGrArArArGrGrUrGrUrUrUrUdTdT / antisense rArArArArCrArCrCrUrUrUrCrUrCrArUrArArGdGdT
Second: sense rCrUrUrCrCrUrCrArArGrArArUrGrCrCrArGrAdTdT / antisense rUrCrUrGrGrCrArUrUrCrUrUrGrArGrGrArArGdGdC
The normalised inhibition (eCFP-eYFP dual reporter) of the first is higher: 92.5% for the first, 76% for the second.

Going from “sense rGrArArGrArGrArUrGrCrUrUrGrArUrArArUrCdTdT / antisense rGrArUrUrArUrCrArArGrCrArUrCrUrCrUrUrCdCdT” to “sense rGrArArGrCrArUrGrCrArArGrArCrArGrArArAdTdT / antisense rUrUrUrCrUrGrUrCrUrUrGrCrArUrGrCrUrUrCdTdC”, the normalised inhibition (eCFP-eYFP dual reporter) rises from 85.9% to 97.1%.

Going from “sense rGrArArGrGrCrCrArGrUrCrArGrCrUrArGrUrAdTdT / antisense rUrArCrUrArGrCrUrGrArCrUrGrGrCrCrUrUrCdCdT” to “sense rGrArCrCrUrGrCrGrArGrCrUrCrArArArUrArUdTdT / antisense rArUrArUrUrUrGrArGrCrUrCrGrCrArGrGrUrCdAdT”, the normalised inhibition (eCFP-eYFP dual reporter) rises from 91.9% to 101%.

Compared with “sense rGrArUrGrArGrGrArArGrArGrArUrGrCrUrUrGdTdT / antisense rCrArArGrCrArUrCrUrCrUrUrCrCrUrCrArUrCdAdG”, “sense rGrArUrUrUrGrUrCrUrGrGrArUrGrUrUrCrUrCdTdT / antisense rGrArGrArArCrArUrCrCrArGrArCrArArArUrCdCdT” is lower in normalised inhibition (eCFP-eYFP dual reporter): 95.1% for the first, 75% for the second.

First: sense rGrCrArArCrUrGrUrGrUrUrGrArCrCrUrCrUrAdTdT / antisense rUrArGrArGrGrUrCrArArCrArCrArGrUrUrGrCdGdA
Second: sense rGrCrGrArGrCrUrCrArArArUrArUrUrArGrGrUdTdT / antisense rArCrCrUrArArUrArUrUrUrGrArGrCrUrCrGrCdAdG
The normalised inhibition (eCFP-eYFP dual reporter) of the first is higher: 114% for the first, 71.6% for the second.

“sense rGrCrUrArGrUrArGrGrCrArUrArGrArArArArGdTdT / antisense rCrUrUrUrUrCrUrArUrGrCrCrUrArCrUrArGrCdTdG” gave a normalised inhibition (eCFP-eYFP dual reporter) of 106%.
